Results from PubChem BioAssay (NCI).
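Following 48 hours of exposure in 96-well plates, responses at five concentrations were used to interpolate endpoints linearly. Abbreviation: GI50, concentration required for 50% inhibition of growth. TGI: total growth inhibition.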

Tests used:
Experiment in all cases: growth of human tumour cells (NCI), 48 h
HCT-15 colon = tested on: HCT-15 colon
UACC-62 melanoma = tested on: UACC-62 melanoma
786-0 renal = tested on: 786-0 renal
SN12C renal = tested on: SN12C renal
LOX IMVI melanoma = tested on: LOX IMVI melanoma
EKVX NSCLC = tested on: EKVX NSCLC
UO-31 renal = tested on: UO-31 renal
SK-MEL-28 melanoma = tested on: SK-MEL-28 melanoma
OVCAR-4 ovarian = tested on: OVCAR-4 ovarian
SNB-75 CNS = tested on: SNB-75 CNS

Row | SMILES | GI50 (HCT-15 colon) | TGI (HCT-15 colon) | GI50 (UACC-62 melanoma) | TGI (UACC-62 melanoma) | GI50 (786-0 renal) | TGI (786-0 renal) | GI50 (SN12C renal) | TGI (SN12C renal) | GI50 (LOX IMVI melanoma) | TGI (LOX IMVI melanoma) | GI50 (EKVX NSCLC) | TGI (EKVX NSCLC) | GI50 (UO-31 renal) | TGI (UO-31 renal) | GI50 (SK-MEL-28 melanoma) | TGI (SK-MEL-28 melanoma) | GI50 (OVCAR-4 ovarian) | TGI (OVCAR-4 ovarian) | GI50 (SNB-75 CNS) | TGI (SNB-75 CNS)
1 | Clc1ccc(N=CNc2ccc(-c3nc4ccccc4o3)cc2)cc1 | 24.5 µM | > 100 µM | 25.3 µM | > 100 µM | 34.6 µM | > 100 µM | 36.7 µM | > 100 µM | 12.5 µM | 25.8 µM | 0.241 µM | 2.84 µM | 40.6 µM | > 100 µM | – | – | – | – | – | –
2 | N#Cc1ccc(OC(=O)Nc2ccc(Cl)c(Cl)c2)cc1 | 2.94 µM | 13.8 µM | 3.06 µM | 31.7 µM | 4.83 µM | 61.2 µM | 3.09 µM | 25.8 µM | – | – | – | – | 2.99 µM | 24.8 µM | 5.53 µM | > 100 µM | 2.24 µM | 17.7 µM | 2.78 µM | 20.6 µM
3 | CO/N=C(/C)c1cccc(Nc2cc(-c3ccccc3)nc3ccc(OC)cc23)c1 | 14.9 µM | 41.1 µM | 4.33 µM | 17.7 µM | 3.18 µM | 13.3 µM | 2.9 µM | 9.67 µM | – | – | 10.8 µM | 30.3 µM | 15.5 µM | > 100 µM | 28.6 µM | 66.8 µM | 20.2 µM | 66.6 µM | 42.9 µM | > 100 µM
4 | CC[C@@]1(O)C(=O)OCc2c1cc1n(c2=O)Cc2c-1nc1cc(F)c(C)c3c1c2[C@@H](N)CC3 | 0.0215 µM | > 100 µM | < 0.01 µM | 0.0208 µM | < 0.01 µM | – | < 0.01 µM | > 100 µM | – | – | 0.0377 µM | > 100 µM | < 0.01 µM | 0.108 µM | – | – | 0.0656 µM | > 100 µM | < 0.0137 µM | 0.101 µM
5 | O=c1c2ccccc2nc(-c2ccccc2)n1NC(=S)Nc1ccccc1 | – | > 100 µM | – | > 100 µM | – | > 100 µM | – | > 100 µM | – | > 100 µM | – | – | – | > 100 µM | – | > 100 µM | – | > 100 µM | – | > 100 µM
6 | Cc1cc(C)n(-c2nnc3n2N=C(c2ccc(-c4ccccc4)cc2)CS3)n1 | 3.51 µM | > 100 µM | 2.49 µM | 6.98 µM | 3.95 µM | > 100 µM | 3.92 µM | > 100 µM | 3.36 µM | > 100 µM | – | – | 3.38 µM | > 100 µM | 3.33 µM | > 100 µM | 4.12 µM | > 100 µM | 3.24 µM | 54.8 µM
7 | CC(C(=O)n1c2ccccc2c2ccccc21)N(c1ccccc1)c1ccccc1 (stereo unspecified) | – | 32.8 µM | – | 31.7 µM | – | 30.2 µM | – | 41.4 µM | – | 30.6 µM | – | 38.8 µM | – | 35.1 µM | – | 34.4 µM | – | – | – | 37.8 µM
8 | Cc1cc2c(nn1)-c1ccccc1C2=O | – | > 10 µM | – | > 10 µM | – | > 10 µM | – | > 10 µM | – | > 10 µM | – | > 10 µM | – | > 10 µM | – | > 10 µM | – | > 10 µM | – | –
9 | O=C(O)CN(c1ccccc1)S(=O)(=O)c1ccc([N+](=O)[O-])cc1 | – | > 100 µM | – | > 100 µM | – | > 100 µM | – | > 100 µM | – | > 100 µM | – | > 100 µM | – | > 100 µM | – | – | – | > 100 µM | – | –
